# Laboratory results: PubChem BioAssay AID2060906 (Molecular Pharmacology Branch, DTP, NCI, 2025)
# System: 485176-168-R4-J1-PDC complex spheroid growth
# Experiment: Anticancer human tumor 485176-168-R4-J1-PDC patient-derived pancreatic adenocarcinoma cell line growth inhibition [RAS]
# Conditions: for IC50: curve of first compound; for viability, T/C: stronger effect = lower value
# Description: RAS pathway inhibitors in Combinations in Complex Spheroids
# A high-throughput screen of multi-cell type tumor spheroids was designed to identify active combinations of RAS pathway inhibitors and targeted small molecules. Complex spheroids include a stromal component modeled by human endothelial cells (HUVEC) and fibroblasts modeled by human mesenchymal stem cells (MSCs). The concentration ranges selected for each drug and investigational agent were based upon clinically achievable concentrations if the clinical Cmax of the agent was known.
# Compounds. The drugs and investigational agents: abemaciclib (NSC768073), cobimetinib (NSC768068), divarasib (GDC6063, NSC841802), docetaxel (NSC628503), GDC-1971 (RLY-1971, NSC841576), gemcitabine (NSC613327), inavolisib (NSC800729), ipatasertib (NSC767898), KB-0742 (NSC834161), MRTX-1133 (NSC836407), osimertinib (NSC779217), RMC-4630 (NSC839698), RMC-6236 (NSC851965), RMC-6291 (NSC852671), Ro-3306 (NSC812927), sapanisertib (NSC764658), SN-38 (NSC673596), staurosporine (NSC755774), SY5609 (NSC837396), and tovorafenib (DAY101, NSC766906), were obtained from the National Cancer Institute (NCI) Developmental Therapeutics Program Chemical Repository. The FDA-approved anticancer drug set is available from the NCI Developmental Therapeutics Program. […] The stock solutions were prepared in dimethyl sulfoxide (DMSO, Sigma-Aldrich, St. Louis, MO, cat. D2650) at 800-fold the tested concentration and stored at -70 degrees C prior to their use. All drugs and investigational agents were tested over a range starting from a high concentration at or near the clinical Cmax and decreasing in half-log increments. If the clinical Cmax for an agent had not been determined, the highest concentration tested was 10 microM.
# Cell Culture. All cells were maintained in an incubator at 37 degrees C and 5% CO2 with 95% humidity. The PDC lines were cultured according to standard operating procedures established by the NCI PDMR. All PDCs were thawed and cultured in Matrigel-coated flasks prepared with a working solution of 1X Ham's F-12 nutrient mix, without supplementation (Invitrogen, Waltham, MA, cat. 11765054), 100 U/mL penicillin-streptomycin (Invitrogen, cat. 15140122), and 2.5% Matrigel (Corning Inc., Corning, NY, cat. 354248) for the first three passages. The 362531-283-R-J2-PDC and 782815-120-R-J1-PDC lines were cultured in 6C/Colon 1B media, which includes advanced DMEM/F-12 (Thermo Fisher Scientific, cat. 12634028), 10 mM HEPES (Thermo Fisher Scientific, cat. 15630080), 1X GlutaMAX supplement (Thermo Fisher Scientific, cat. 35050061), 0.1 mg/mL primocin (InvivoGen, San Diego, CA, cat. ant-pm-2), 10% defined fetal bovine serum, heat inactivated (HyClone Laboratories Inc., Logan, UT, cat. SH30070.03HI), 50% L-WRN conditioned media (ATCC, cat. CRL-3276), 1.25 mM N-Acetyl-L-cysteine (Sigma-Aldrich, cat. A9165), 10 mM nicotinamide (Sigma-Aldrich, cat. N0636), 1X B-27 supplement (Thermo Fisher Scientific, cat. 17504044), 1X N-2 supplement (Thermo Fisher Scientific, cat. 17502048), 50 ng/mL human EGF (Thermo Fisher Scientific, cat. PHG0311), and 10 microM Y-27632 dihydrochloride (Tocris Bioscience, cat. 1254). The K12877-001-R-J1-PDC line was cultured in 6I media, which includes all 6C/Colon 1B media plus 10 ng/mL human FGF-10 (PeproTech, cat. 100-26), 1 ng/mL human FGF-2 (PeproTech, cat. 100-18B), 1 µM prostaglandin E2 (Tocris Bioscience, cat. 2296), […] hydrocortisone (Sigma-Aldrich, cat. H4001), and […] bovine insulin (Sigma-Aldrich, cat. I6634). The K86415-001-R-J1-PDC line was cultured in 6D media, which includes all 6C/Colon 1B media components minus the L-WRN conditioned media. The 485176-168-R4-J1-PDC was cultured in PANC media, which includes all 6C/Colon 1B media plus 100 ng/mL human FGF-10 (PeproTech, cat. 100-26), 500 nM SB-431542 (Selleckchem, cat. S1067), and 10 nM gastrin (Tocris Bioscience, cat. 3006). […]
# [1] = second compound 0.0316 µM, first compound 0.0316 µM
# [2] = second compound 0.0316 µM, first compound 0.1 µM
# [3] = second compound 0.0316 µM, first compound 0.316 µM
# [4] = second compound 0.0316 µM, first compound 1 µM
# [5] = second compound 0.0316 µM, first compound 3.16 µM
# [6] = second compound 0.0316 µM, first compound 10 µM
# [7] = second compound 0.1 µM, first compound 0.0316 µM
# [8] = second compound 0.1 µM, first compound 0.1 µM
# [9] = second compound 0.1 µM, first compound 0.316 µM
# [10] = second compound 0.1 µM, first compound 1 µM
# [11] = second compound 0.1 µM, first compound 3.16 µM
# [12] = second compound 0.1 µM, first compound 10 µM
# [13] = second compound 0.316 µM, first compound 0.0316 µM
# [14] = second compound 0.316 µM, first compound 0.1 µM
# [15] = second compound 0.316 µM, first compound 0.316 µM
# [16] = second compound 0.316 µM, first compound 1 µM
# [17] = second compound 0.316 µM, first compound 3.16 µM
# [18] = second compound 0.316 µM, first compound 10 µM
# [19] = second compound 1 µM, first compound 0.0316 µM
# [20] = second compound 1 µM, first compound 0.1 µM
# [21] = second compound 1 µM, first compound 0.316 µM
# [22] = second compound 1 µM, first compound 1 µM
# [23] = second compound 1 µM, first compound 3.16 µM
# [24] = second compound 1 µM, first compound 10 µM
# [25] = second compound 3.16 µM, first compound 0.0316 µM
# [26] = second compound 3.16 µM, first compound 0.1 µM
# [27] = second compound 3.16 µM, first compound 0.316 µM
# [28] = second compound 3.16 µM, first compound 1 µM
# [29] = second compound 3.16 µM, first compound 3.16 µM
# [30] = second compound 3.16 µM, first compound 10 µM
# [31] = second compound 10 µM, first compound 0.0316 µM
# [32] = second compound 10 µM, first compound 0.1 µM
# [33] = second compound 10 µM, first compound 0.316 µM
# [34] = second compound 10 µM, first compound 1 µM
# [35] = second compound 10 µM, first compound 3.16 µM
# [36] = second compound 10 µM, first compound 10 µM
# 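Also: spheroids exposed to compounds for seven days before readout.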
# 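For viability, T/C in this document: luminescence viability expressed relative to DMSO vehicle wells set as 100%.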
smiles,measurement,setting,value
CC(C)NCC(C(=O)N1CCN(c2ncnc3c2C(C)CC3O)CC1)c1ccc(Cl)cc1 (stereo unspecified) + C#Cc1c(F)ccc2cc(O)cc(-c3ncc4c(N5CC6CCC(C5)N6)nc(OCC56CCCN5CC(F)C6)nc4c3F)c12,IC50,second compound 0.0316 µM,3.29 µM
same,IC50,second compound 0.1 µM,0.851 µM
same,IC50,second compound 0.316 µM,2.77 µM
same,IC50,second compound 1 µM,0.884 µM
same,IC50,second compound 3.16 µM,2.12 µM
same,IC50,second compound 10 µM,1.51 µM
same,"viability, T/C",[1],113%
same,"viability, T/C",[2],99.2%
same,"viability, T/C",[3],84.7%
same,"viability, T/C",[4],70.1%
same,"viability, T/C",[5],47.3%
same,"viability, T/C",[6],38.5%
same,"viability, T/C",[7],99%
same,"viability, T/C",[8],127%
same,"viability, T/C",[9],72.8%
same,"viability, T/C",[10],59.8%
same,"viability, T/C",[11],45.6%
same,"viability, T/C",[12],33.4%
same,"viability, T/C",[13],109%
same,"viability, T/C",[14],96.5%
same,"viability, T/C",[15],72.7%
same,"viability, T/C",[16],65.4%
same,"viability, T/C",[17],51.8%
same,"viability, T/C",[18],31.1%
same,"viability, T/C",[19],92.2%
same,"viability, T/C",[20],105%
same,"viability, T/C",[21],72.4%
same,"viability, T/C",[22],51.4%
same,"viability, T/C",[23],48.5%
same,"viability, T/C",[24],35.3%
same,"viability, T/C",[25],99.3%
same,"viability, T/C",[26],96.1%
same,"viability, T/C",[27],82.9%
same,"viability, T/C",[28],53.8%
same,"viability, T/C",[29],52%
same,"viability, T/C",[30],31%
same,"viability, T/C",[31],104%
same,"viability, T/C",[32],87.9%
same,"viability, T/C",[33],82.6%
same,"viability, T/C",[34],55.8%
same,"viability, T/C",[35],36.8%
same,"viability, T/C",[36],33.9%
CC(C)n1nc(-c2ccc3oc(N)nc3c2)c2c(N)ncnc21 + C#Cc1c(F)ccc2cc(O)cc(-c3ncc4c(N5CC6CCC(C5)N6)nc(OCC56CCCN5CC(F)C6)nc4c3F)c12,IC50,second compound 0.0316 µM,0.0318 µM
same,IC50,second compound 0.1 µM,0.019 µM
same,IC50,second compound 0.316 µM,0.0346 µM
same,IC50,second compound 1 µM,0.025 µM
same,IC50,second compound 3.16 µM,0.0221 µM
same,IC50,second compound 10 µM,0.0233 µM
same,"viability, T/C","second compound 0.0316 µM, first compound 0.000316 µM",100%
same,"viability, T/C","second compound 0.0316 µM, first compound 0.001 µM",106%
same,"viability, T/C","second compound 0.0316 µM, first compound 0.00316 µM",88.6%
same,"viability, T/C","second compound 0.0316 µM, first compound 0.01 µM",82.3%
same,"viability, T/C",[1],49%
same,"viability, T/C",[2],19.8%
same,"viability, T/C","second compound 0.1 µM, first compound 0.000316 µM",96.2%
same,"viability, T/C","second compound 0.1 µM, first compound 0.001 µM",107%
same,"viability, T/C","second compound 0.1 µM, first compound 0.00316 µM",65.4%
same,"viability, T/C","second compound 0.1 µM, first compound 0.01 µM",69.2%
same,"viability, T/C",[7],39%
same,"viability, T/C",[8],23.7%
same,"viability, T/C","second compound 0.316 µM, first compound 0.000316 µM",98.3%
same,"viability, T/C","second compound 0.316 µM, first compound 0.001 µM",78.5%
same,"viability, T/C","second compound 0.316 µM, first compound 0.00316 µM",82.5%
same,"viability, T/C","second compound 0.316 µM, first compound 0.01 µM",63.1%
same,"viability, T/C",[13],61.7%
same,"viability, T/C",[14],20.1%
same,"viability, T/C","second compound 1 µM, first compound 0.000316 µM",88%
same,"viability, T/C","second compound 1 µM, first compound 0.001 µM",91.5%
same,"viability, T/C","second compound 1 µM, first compound 0.00316 µM",86.4%
same,"viability, T/C","second compound 1 µM, first compound 0.01 µM",55.9%
same,"viability, T/C",[19],51.9%
same,"viability, T/C",[20],22%
same,"viability, T/C","second compound 3.16 µM, first compound 0.000316 µM",91.9%
same,"viability, T/C","second compound 3.16 µM, first compound 0.001 µM",87.7%
same,"viability, T/C","second compound 3.16 µM, first compound 0.00316 µM",78.4%
same,"viability, T/C","second compound 3.16 µM, first compound 0.01 µM",80%
same,"viability, T/C",[25],36.6%
same,"viability, T/C",[26],21.5%
same,"viability, T/C","second compound 10 µM, first compound 0.000316 µM",92.3%
same,"viability, T/C","second compound 10 µM, first compound 0.001 µM",81.1%
same,"viability, T/C","second compound 10 µM, first compound 0.00316 µM",80.8%
same,"viability, T/C","second compound 10 µM, first compound 0.01 µM",68.9%
same,"viability, T/C",[31],42.5%
same,"viability, T/C",[32],20.9%
CC(Nc1ccc2c(c1)OCCn1cc(N3C(=O)OCC3C(F)F)nc1-2)C(N)=O (stereo unspecified) + C#Cc1c(F)ccc2cc(O)cc(-c3ncc4c(N5CC6CCC(C5)N6)nc(OCC56CCCN5CC(F)C6)nc4c3F)c12,IC50,second compound 0.0316 µM,> 10 µM
same,IC50,second compound 0.1 µM,> 10 µM
same,IC50,second compound 0.316 µM,> 10 µM
same,IC50,second compound 1 µM,> 10 µM
same,IC50,second compound 3.16 µM,> 10 µM
same,IC50,second compound 10 µM,> 10 µM
same,"viability, T/C",[1],97.5%
same,"viability, T/C",[2],86.5%
same,"viability, T/C",[3],91.8%
same,"viability, T/C",[4],83.5%
same,"viability, T/C",[5],59.1%
same,"viability, T/C",[6],65.4%
same,"viability, T/C",[7],114%
same,"viability, T/C",[8],98.6%
same,"viability, T/C",[9],71.9%
same,"viability, T/C",[10],70.8%
same,"viability, T/C",[11],69.4%
same,"viability, T/C",[12],50%
same,"viability, T/C",[13],92.5%
same,"viability, T/C",[14],75%
same,"viability, T/C",[15],88.8%
same,"viability, T/C",[16],79.4%
same,"viability, T/C",[17],75.3%
same,"viability, T/C",[18],54.8%
same,"viability, T/C",[19],107%
same,"viability, T/C",[20],81.1%
same,"viability, T/C",[21],85.8%
same,"viability, T/C",[22],90.5%
same,"viability, T/C",[23],78%
same,"viability, T/C",[24],56.6%
same,"viability, T/C",[25],107%
same,"viability, T/C",[26],94.2%
same,"viability, T/C",[27],85.8%
same,"viability, T/C",[28],79.9%
same,"viability, T/C",[29],53.4%
same,"viability, T/C",[30],56.5%
same,"viability, T/C",[31],91.7%
same,"viability, T/C",[32],88.9%
same,"viability, T/C",[33],67.7%
same,"viability, T/C",[34],71.4%
same,"viability, T/C",[35],72.1%
same,"viability, T/C",[36],44%
